Like-named read-outs stand apart in the source and are kept apart here.
Tests used:
Assay in all cases: […]-ATP radiometric filter-binding kinase assay
Type in all cases: biochemical
CDK5/p35 = molecular target: T1, CDK5/p35 (Homo sapiens, UniProt Q00535)
T1 construct: purified CDK5/p35 complex

CDK2/cyclin E = molecular target: T2, CDK2/cyclin E (Homo sapiens, UniProt P24941)
T2 construct: purified CDK/cyclin complex; with G1/S-specific cyclin-E1

CDK9/cyclin K = molecular target: T3, CDK9/cyclin K (Homo sapiens, UniProt P50750)
T3 construct: purified CDK9/cyclin K complex; with Cyclin-K
T3 sequence (P50750 whole entry): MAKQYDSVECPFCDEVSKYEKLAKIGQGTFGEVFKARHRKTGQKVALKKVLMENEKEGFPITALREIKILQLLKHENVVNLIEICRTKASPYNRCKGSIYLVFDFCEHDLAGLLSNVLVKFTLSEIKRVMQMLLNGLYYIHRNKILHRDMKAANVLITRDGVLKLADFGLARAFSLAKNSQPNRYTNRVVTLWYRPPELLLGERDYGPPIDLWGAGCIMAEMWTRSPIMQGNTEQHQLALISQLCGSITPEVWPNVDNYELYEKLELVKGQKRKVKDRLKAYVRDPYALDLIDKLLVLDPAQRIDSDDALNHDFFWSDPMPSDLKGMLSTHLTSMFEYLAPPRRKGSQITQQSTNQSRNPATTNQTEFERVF
T3 sequence (O75909 whole entry partner): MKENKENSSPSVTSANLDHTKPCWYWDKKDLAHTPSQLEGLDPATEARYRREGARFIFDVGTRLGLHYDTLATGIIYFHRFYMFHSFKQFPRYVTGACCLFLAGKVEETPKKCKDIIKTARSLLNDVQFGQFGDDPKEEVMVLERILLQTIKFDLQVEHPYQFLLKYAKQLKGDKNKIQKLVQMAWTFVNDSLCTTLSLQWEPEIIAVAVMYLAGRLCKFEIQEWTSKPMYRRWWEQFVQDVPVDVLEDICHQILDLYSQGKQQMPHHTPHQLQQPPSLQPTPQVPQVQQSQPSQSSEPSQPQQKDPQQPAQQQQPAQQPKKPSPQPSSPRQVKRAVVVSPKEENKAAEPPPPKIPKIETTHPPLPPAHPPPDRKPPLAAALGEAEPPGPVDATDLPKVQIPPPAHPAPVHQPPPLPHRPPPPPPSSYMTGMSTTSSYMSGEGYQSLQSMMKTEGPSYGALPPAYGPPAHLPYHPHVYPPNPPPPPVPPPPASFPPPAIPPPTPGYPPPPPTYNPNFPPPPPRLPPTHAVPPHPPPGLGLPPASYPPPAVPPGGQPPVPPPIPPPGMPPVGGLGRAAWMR

CDK1/cyclin E = molecular target: T4, CDK1/cyclin E (Homo sapiens, UniProt P06493)
T4 construct: purified CDK/cyclin complex; with G1/S-specific cyclin-E1
T4 sequence (P06493 whole entry): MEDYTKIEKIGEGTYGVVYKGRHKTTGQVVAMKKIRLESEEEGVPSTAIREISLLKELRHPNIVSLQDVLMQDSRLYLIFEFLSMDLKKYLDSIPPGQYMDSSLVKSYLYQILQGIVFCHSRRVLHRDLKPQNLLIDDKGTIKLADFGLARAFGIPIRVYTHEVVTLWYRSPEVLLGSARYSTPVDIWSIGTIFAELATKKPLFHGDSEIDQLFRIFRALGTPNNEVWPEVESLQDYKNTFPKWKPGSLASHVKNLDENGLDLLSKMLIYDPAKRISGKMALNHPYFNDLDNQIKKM
T4 sequence (P24864 whole entry partner): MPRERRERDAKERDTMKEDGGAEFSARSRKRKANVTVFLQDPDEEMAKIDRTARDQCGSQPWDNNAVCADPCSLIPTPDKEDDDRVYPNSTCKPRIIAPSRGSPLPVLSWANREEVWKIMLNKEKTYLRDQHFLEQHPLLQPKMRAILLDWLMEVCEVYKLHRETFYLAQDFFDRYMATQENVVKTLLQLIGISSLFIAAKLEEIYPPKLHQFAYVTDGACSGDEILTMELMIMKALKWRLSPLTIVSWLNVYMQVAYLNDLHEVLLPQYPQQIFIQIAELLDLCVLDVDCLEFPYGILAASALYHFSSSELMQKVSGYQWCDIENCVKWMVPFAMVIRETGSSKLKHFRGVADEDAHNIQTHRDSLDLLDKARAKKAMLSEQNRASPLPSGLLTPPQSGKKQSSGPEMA

T1 sequence (Q00535 whole entry): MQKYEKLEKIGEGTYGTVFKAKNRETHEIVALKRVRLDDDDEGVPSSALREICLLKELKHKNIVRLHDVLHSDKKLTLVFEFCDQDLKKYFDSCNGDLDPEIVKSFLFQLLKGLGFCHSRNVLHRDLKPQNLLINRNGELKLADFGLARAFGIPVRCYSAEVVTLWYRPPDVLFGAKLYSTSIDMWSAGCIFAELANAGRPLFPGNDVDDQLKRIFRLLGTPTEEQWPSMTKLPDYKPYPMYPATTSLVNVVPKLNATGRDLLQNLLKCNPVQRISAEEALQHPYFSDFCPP
T1 sequence (Q15078 2-307 partner): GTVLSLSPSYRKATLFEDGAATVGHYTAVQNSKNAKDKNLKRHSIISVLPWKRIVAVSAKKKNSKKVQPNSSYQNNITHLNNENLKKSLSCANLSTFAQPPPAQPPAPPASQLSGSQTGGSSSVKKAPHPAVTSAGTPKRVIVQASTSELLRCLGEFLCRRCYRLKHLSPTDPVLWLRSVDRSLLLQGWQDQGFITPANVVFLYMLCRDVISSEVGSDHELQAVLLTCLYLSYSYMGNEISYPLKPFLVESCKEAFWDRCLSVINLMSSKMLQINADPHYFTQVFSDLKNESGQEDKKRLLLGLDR

Question: What does the source list for `CC(C)n1cnc(NC(=O)Cc2ccccn2)c1` [compound 4, Compound 4]?
Answer: IC50 (CDK5/p35; read-out: Compound 4): 20000 nM; IC50 (CDK2/cyclin E; read-out: Compound 4): 270 nM; IC50 (CDK9/cyclin K; read-out: Compound 4): 880 nM; IC50 (CDK1/cyclin E; read-out: Compound 4): 6200 nM

Question: Which results are given for `CC(C(=O)Nc1cn(C(C)C)cn1)c1ccccc1` (racemic) [compound 3, Compound 3]?
Answer: IC50 (CDK5/p35; read-out: Compound 3): 79000 nM; IC50 (CDK2/cyclin E; read-out: Compound 3): 1200 nM; IC50 (CDK9/cyclin K; read-out: Compound 3): 4300 nM; IC50 (CDK1/cyclin E; read-out: Compound 3): 30000 nM

Question: How did the IC50 (CDK5/p35; read-out: Compound 2) turn out when `CC(C)n1cnc(NC(=O)Cc2ccccc2O)c1` [compound 2, Compound 2] was run?
Answer: 880 nM

Question: What about the IC50 (CDK2/cyclin E; read-out: Compound 2) of the same compound?
Answer: 160 nM

Question: What about the IC50 (CDK9/cyclin K; read-out: Compound 2) of the same compound?
Answer: 1000 nM

Question: What about the IC50 (CDK1/cyclin E; read-out: Compound 2) of the same compound?
Answer: 720 nM

Question: For `CC(C)n1cnc(NC(=O)Cc2ccccc2)c1` [compound 1, Compound 1], which IC50 (CDK5/p35; read-out: Compound 1) is on record?
Answer: 40000 nM

Question: What about the IC50 (CDK2/cyclin E; read-out: Compound 1) of the same compound?
Answer: 710 nM

Question: And the IC50 (CDK9/cyclin K; read-out: Compound 1)?
Answer: 3000 nM

Question: And the IC50 (CDK1/cyclin E; read-out: Compound 1)?
Answer: 14000 nM
